Assay results reported in patent publication US11980620B2, “Compounds and methods for treatment of Diamond Blackfan anemia” (THE CHILDREN'S MEDICAL CENTER CORPORATION, priority 2017, dated 2024).

Columns and labels:
[1] = tested on: K562 erythroleukemia cells transduced with shRPS19; test: Autophagy induction (p62, LC3-I, LC3-II protein levels) in K562 cells transduced with shRPS19; type: cell-based, human; conditions: 5-FU 100 nM
Description: (FIG. 13A) Induction of autophagy by SMER28 (40 μM) monitored by protein levels of p62, LC3-I, and LC3-II after 24 hours. Cells were also treated with 5-FU (100 nM) to induce autophagy, or inhibitor of transcription actinomycin D (ActD; 100 nM). (FIG. 13B) Induction of autophagy by SMER28 (40 μM) monitored by protein levels of p62, LC3-I, and LC3-II after 24 hours treatment with or without lysosomal blockade with bafilomycin A (200 nM for 4 hours). Untreated samples are shown at higher exposure, to capture dynamic changes in the LC3-II levels. Rapamycin (200 nM) is a positive control. LC3-II levels relative to GAPDH are quantitated on the right. (FIG. 13C) Erythroid differentiation of CD34-5F cells transduced with shRNAs for luciferase (LUC) or ATG5±SMER28. Representative flow plots and quantitation showing the number of erythroid cells induced by SMER28 (10 μM) normalized to DMSO. 2 control luciferase shRNAs and 2 ATG5 shRNAs are included (knockdown efficiency in hematopoietic cells of 58% and 50%, respectively), each with 2 independent lines; p=0.005, 3 independent experiments. (FIG. 13D) Atg5 deficiency causes anemia in zebrafish. Wild-type zebrafish embryos were treated with 1.6 ng atg5 or missense morpholino, and hemoglobin staining was visualized with benzidine staining at 40 hpf with SMER28 (1 μM). Representative images (left), and quantitation (right) with embryos grouped by high, medium, and low levels of benzidine staining.
SMER28 was identified as an mTOR-independent inducer of autophagy, by synergizing with rapamycin to promote clearance of protein aggregates in models of neurodegenerative disease (Sarkar et al., 2007; Tian et al., 2011). Autophagy is a pro-survival pathway induced by a variety of stresses, such as nutrient limitation or protein aggregation. Autophagy is required for clearance of mitochondria during terminal erythroid maturation (Mortensen and Simon, 2010), but has not been linked with earlier stages of erythropoiesis. To determine if SMER28 modulates autophagy in erythroid cells, we interrogated the levels of p62 and LC3 in K562 erythroleukemia cells transduced with shRPS19. SMER28 reduced p62 and increased the levels of […] LC3-II isoform associated with autophagosomes (FIG. 13A). […] To measure autophagic flux, we monitored LC3-II levels after blocking lysosomal fusion with bafilomycin A. SMER28 increased LC3-II levels following lysosomal blockade, similarly to the mTOR inhibitor rapamycin (FIG. 13B).
Drug treatments. SMER28 was purchased from Tocris and diluted in 10 mM aliquots in DMSO. The final concentration for CD34-5F and CB CD34^+erythroid treatments was 0.2-10 μM as indicated in the text. The final concentration for K562 cell treatments was 20-40 μM. […]

CB CD34+ cells = type: in vivo, NSG mice; conditions: 1 mg/kg Dex (sodium-phosphate) for 4 weeks; p=0.04
Description: (FIG. 10A) SMER28 rescues RBC output in rps29^+/− zebrafish embryos. The level of hemoglobin in the yolk sac was visualized 40hpf with benzidine staining. Images are representative of the proportion of embryos indicated (of total counted). (FIG. 10B) Quantitation of SMER28 rescue for a range of 0.1-1 μM, with embryos grouped by high, medium, and low levels of hemoglobin staining. (FIG. 10C) Peripheral blood (PB) RBC counts and hematocrit in mice with irradiation-induced anemia. Mice were treated with the PEG400-based vehicle containing DMSO (VEH) (n=11), 1 mg/kg Dex (sodium-phosphate) (n=13), or 10 mg/kg SMER28 (n=9) for 3 weeks, bled, and assessed. Data are combined from 3 independent experiments. (FIG. 10D) Erythroid cells as proportion of the human graft in mice transplanted with DBA CD34-5F progenitors, and treated as in (FIG. 1c). (FIG. 10E) Levels of human engraftment in NSG mouse bone marrow (BM) transplanted with CB CD34^+ cells. Mice were treated with DMSO plus vehicle (VEH) (n=10), 1 mg/kg Dex (sodium-phosphate) (n=6), or 2 mg/kg SMER28 (n=11) for 4 weeks. (FIG. 10F) The proportion of erythroid, myeloid, and lymphoid (B cells) lineages within the human graft in vehicle- and SMER28-treated mice transplanted with CB CD34^+ cells. Only the effect on the erythroid lineage was significant. Data in FIGS. 10E-10G are pooled from 2 independent experiments. For all panels, *p<0.05, * *p<0.01.
Drug treatments. SMER28 was purchased from Tocris and diluted in 10 mM aliquots in DMSO. The final concentration for CD34-5F and CB CD34^+erythroid treatments was 0.2-10 μM as indicated in the text. The final concentration for K562 cell treatments was 20-40 μM. Ferric citrate (1-50 μM) and deferoxamine (100-200 μM) (Sigma) were dissolved in PBS and added on days 0-4 of “expansion” culture, and washed off prior to erythroid stage I (days 4-9) differentiation. For in vivo experiments, SMER28 aliquots were diluted in vehicle solution: 30% PEG-400, 5% propylene glycol, and 0.5% Tween-80. Dosing for human xenograft experiments was 2 mg/kg; for mouse models 10-20 mg/kg. Dexamethasone was purchased as Dex-sodium phosphate (DexSP) water-soluble formulation (Santa Cruz), and diluted in PBS vehicle (1 mg/kg). NSG mice were sub-lethally irradiated at 275 rads, and administered 100 μl of drug or vehicle by oral gavage daily.

[2] = tested on: CD71+ cells in a erythroid cell population; test: Percentage of CD71+ cells in an erythroid cell population in vitro; type: cell-based; conditions: between 5-20 μM in vitro
Description: Accordingly, in some embodiments, an autophagy activator as disclosed herein can be administered to a subject according to the methods as disclosed herein in an effective dose to increase the levels of CD71+ cells in an erythroid cell population obtained from the subject by at least about 1%, at least about 2%, at least about 3%, at least about 5%, at least about 10%, at least about 15%, least about 20%, at least about 30%, at least about 40%, at least about 50%, or more than 50%, as compared to in the absence of an autophagy activator.

O=c1[nH]cc(F)c(=O)[nH]1 [5-fluorouracil, reference compound]
conversion of cytosolic LC3-I into LC3-II [1]: induced

C[C@@H]1C[C@H]2[C@@H]3CCC4=CC(=O)C=C[C@]4(C)[C@@]3(F)[C@@H](O)C[C@]2(C)[C@@]1(O)C(=O)CO [Dex, Dexamethasone, reference compound]
RBC output as proportion of human graft (CB CD34+ cells): 10.4%

CN1CCN(CCCN2c3ccccc3Sc3ccc(C(F)(F)F)cc32)CC1 [TFP]
percentage of CD71+ cells [2]: restored
